In brackets after ≈: the same amount, converted by molar mass.
Assays:
Type in all cases: cell-based
Porphyromonas gingivalis [1] = assay: MIC study, 96 well microtiter plate serial dilution; conditions: P. gingivalis, 37° C., 48 hours, turbidity at 660 nm, read-out: MIC (minimum inhibitory concentration)
Experimental: (§1) In vitro tests were conducted with a gram positive supragingival plaque bacterium, Streptococcus mutans. In addition, two subgingival plaque bacteria associated with oral malodor were tested, Porphyromonas gingivalis and Fusobacterium nucleatum. The MIC (Minimum Inhibitory Concentrations) study protocol is as follows. Chlorhexidine was used as a positive control and sterile water was used as a negative control. Salicylaldehyde was suspended in 10% methanol with 3.8% Tween 80. […] 96 well microtiter plates were used for this study. Each well contained […] of bacteria, serially diluted agents and bacterial growth medium. All bacterial cultures were incubated at 37° C. and stationary. Bacterial growth was estimated spectrophotometrically at 660 nm, after 48 hours. The MIC for each test bacteria was defined as the minimum concentration of test compound limiting turbidity to […].

Fusobacterium nucleatum [2] = assay: as above; conditions: F. nucleatum, 37° C., 48 hours, turbidity at 660 nm, read-out: MIC (minimum inhibitory concentration)
Experimental: as §1

Porphyromonas gingivalis [3] = assay: MBC determination, plating on blood agar; conditions: P. gingivalis, lowest concentration that killed at least 99.9% of initial inoculum, plates 48 hours at 37° C., read-out: MBC (minimum bactericidal concentration)
Experimental: (§2) The MBC (Minimum bactericidal concentrations) were determined using the 96 well microtiter plate serial dilutions as described above for MIC studies. Serial dilution of cultures in wells showing no visible growth were performed and 10 microliters of culture were plated in triplicate on blood agar plates. Viable colonies were scored after incubation of the plates for 48 hours at 37° C. For each test bacterium, the number of CFU/ml were determined in the initial inoculum. The MBC was defined as the lowest concentration of a test compound that killed at least 99.9% of the cells present in the initial inoculum.

Fusobacterium nucleatum [4] = assay: MBC determination, plating on blood agar; conditions: F. nucleatum, lowest concentration that killed at least 99.9% of initial inoculum, plates 48 hours at 37° C., read-out: MBC (minimum bactericidal concentration)
Experimental: as §2

Streptococcus mutans = assay: MIC study, 96 well microtiter plate serial dilution
Experimental: as §1

Row | MIC (Porphyromonas gingivalis [1]) [µg/mL] | MIC (Fusobacterium nucleatum [2]) [µg/mL] | MIC (Streptococcus mutans; Streptococcus mutans, S. mutans, 37° C., 48 hours, turbidity at 660 nm, read-out: MIC (minimum inhibitory concentration)) [µg/mL] | Structure (SMILES) | MBC (Porphyromonas gingivalis [3]) [µg/mL] | MBC (Fusobacterium nucleatum [4]) [µg/mL] | effectiveness against S. mutans (in words) (Streptococcus mutans)
1 | 1.25 (≈ 2.47 µM) | 1.25 (≈ 2.47 µM) | – | [H]/N=C(\N/C(=N/[H])NCCCCCCNC(=N)NC(=N)Nc1ccc(Cl)cc1)Nc1ccc(Cl)cc1 [Cholorhexidine, Chlorhexidine, reference compound] | 1.25 (≈ 2.47 µM) | 1.25 (≈ 2.47 µM) | –
2 | 125 (≈ 1020 µM) | 7.8 (≈ 63.9 µM) | 1000 (≈ 8190 µM) | O=Cc1ccccc1O [salicylaldehyde] | 250 (≈ 2050 µM) | 15.6 (≈ 128 µM) | not exceptionally effective

From patent US20040258733A1, “Breath Freshening and Oral Cleansing Product Using Salicylaldehyde” (priority 2002, published 2004)
